Measured values published in patent US20170209483A1, “ANTIBIOTIC ACTIVITY OF IRON SEQUESTERING POLYMERS” (UNIVERSITY OF KANSAS, priority 2014, published 2017).
Where a name gives a salt, the structure may show the parent alone.

Experiments:
[1] = tested on: Pseudomonas aeruginosa strain PA01 wild type; experiment: Comparison to traditional iron chelating agents, bacterial counts; type: cell-based; conditions: EDTA or HBED 500 μM, PAI-DHBA 20 mg, added at inoculation; 5, 6 and 12 h
P. aeruginosa = conditions: concentrations used reflect reported MICs; cited from earlier work
[2] = in vivo; cited from earlier work
[3] = tested on: Pseudomonas aeruginosa strain PA01 wild type; experiment: PAI-DHBA as an adjuvant to conventional antibiotics on bacterial growth; type: cell-based; conditions: Ciprofloxacin 1 μg/mL added at 5 h, read at 9 h, versus control

Row | Compound | Bacterial count (CFU/mL) versus control (no chelator) [1] | Reported MIC (P. aeruginosa) | also measured
1 | sodium ethylene diamine tetraacetate [EDTA] | small, transient difference | – | –
2 | Gentamicin sulfate | – | 24 µg/mL | –
3 | O=C(O)CN(CCN(CC(=O)O)Cc1ccccc1O)Cc1ccccc1O [HBED, N,N-bis (2-hydroxybenzyl) ethylenediamine-N,N-diacetic acid] | small, transient difference | – | –
4 | CC(=O)N(O)CCCCCNC(=O)CCC(=O)N(O)CCCCCNC(=O)CCC(=O)N(O)CCCCCN [DFO, deferoxamine] | – | – | Plasma half-life [2]: ~5.5 min
5 | O=C(O)c1cn(C2CC2)c2cc(N3CCNCC3)c(F)cc2c1=O [Ciprofloxacin, Ciprofloxacin hydrochloride] | – | 1 µg/mL | Overall reduction in CFU/mL [3]: approximately 4 log units
